Laboratory results published in US8835466B2, “Synthesis and uses of pyroglutamic acid derivatives” (Prodimed, S.A., priority 2006, dated 2014).
Several values for one entry are separate records, joined by “and”; a condition that tells them apart may be missing. Equal entries are not always repeated.

What was measured:
ASB XIV (lung carcinoma) = experiment: Effect of isomer 4 (9d) on tumour growth, ASB XIV (Example 10); type: in vivo; settings: Balb/cAnNCrI mice, 260 ng/mice i.p. days 6, 7 and 14
Description: The following assays were made in order to check the effect of isomer 4 (9d) on different tumours following methods and materials analogous to those used in examples 8 and 9, In all cases sterile physiologic saline (Grifols, Barcelona, Spain) was used as placebo. Isomer 4 (9d) was tested at the dose levels indicated in Table 13 on days 6, 7 and 14 after tumour inoculation. In all cases the vehicle was physiologic saline and the treatments were given by intraperitoneal route. The volume inoculated was 0.2 mL/animal.

[1] = system: KLN 205 cells (lung cell carcinoma); experiment: Effect of 9d in combination with Cisplatin on tumour growth, KLN 205 (Example 11); type: in vivo, DBA/2 mice; settings: for Tumour surface, overall values (Mean) / Tumour surface, overall values (Median) / Tumour volume, overall values (Mean) / Tumour volume, overall values (Median): Cisplatin 65 μg i.p. days 3, 6, 10, 13, 17, 20
Description: This was carried out by measuring two perpendicular diameters (d1/d2) with a calliper. These measures were used to obtain both tumour surface and volume: […] Results were expressed as single values and/or as the mean±SD or median from each experimental group. This assay was made in order to check the effect on in vivo tumour growth in mice challenged with KLN 205 cells. Their effect was compared with the combination of Cisplatin plus 9d and/or placebo. KLN 205 is a lung cell carcinoma originated in DBA/2 mouse strain, and therefore syngeneic in mice with DBA/2 genetic background (Kaneko T and […]. Growth characteristics and drug responses of a murine lung carcinoma in vitro and in vivo. Cancer Res. 38: 2084-2090; 1978). KLN 205 cells (CLS, Eppelheim, Germany) were maintained in vitro by serial passages every 3-4 days. […] Louis, Mo., USA) by seeding 5×10^6 cells onto 75 cm^2 culture flasks. Subcultures were carried out by collecting detached cells after treatment with trypsin-EDTA (Sigma, St. Louis, Mo., USA). Tumour cells, collected from 48 hour cultures, were used as source of KLN 205 cells for the studies described below. […] Tumours were established by subcutaneous inoculation in the right hind flank. Mice (DBA/2) were inoculated with 0.2 mL containing 2×10^5 viable KLN 205 cells. The day of subcutaneous inoculation will be considered Day 0 of the test. A case-control study was performed with treated and control mice in order to determine whether differences between placebo, 9d, Cisplatin or 9d+Cisplatin were present. […] The t-test was chosen for being one of the better known parametrical tests.

[2] = system: CD11b and Ly6G positive leukocyte populations; experiment: Phenotype leukocyte analysis by flow cytometry (CD11b, Ly6G) in peripheral blood (Example 16); type: in vivo, Balb/c mice
Description: This Example was carried out with the aim at assessing eventual differences in the leukocyte population percentage among the treated mice by flow cytometry. The counts were carried out by using a flow cytometer after labelling membrane proteins (CD11B and Ly6G) with specific antibodies to said proteins. CD11B (also known as Mac-1) marker is expressed in monocyte populations whereas Ly6G (also known as GR-1) is expressed in granulocyte populations. Both markers (CD11b and Ly6G) are expressed in neutrophile populations.
Isomer 4 (compound 9d) at 65 μg/mL in sterile physiological saline.
Equipment Laminar flood hood, Flow cytometer, Adjustable pipettes, Sterile syringes, Sterile needles, EDTA stelile tubes, Plastic tubes. Reagents • Anaesthetic solution • Sterile PBS (Sigma, St. Louis, Mo., USA) • Physiological saline (Grifols, Barcelona, Spain) • Rat anti-mouse CD11b-PE (Beckman Coulter, Fullerton, Calif., USA) • Rat anti-mouse Ly6G-FITC (Beckman Coulter, Fullerton, Calif., USA) • Optylise C (Beckman Coulter, Fullerton, Calif., USA) Dose, Vehicle, Route and Volume Administration Dose Isomer 4 (compound 9d) was tested at the dose levels of 250 ng administered on days 0, and 7. Vehicle The vehicle in which Isomer 4 was diluted is physiological saline. Administration Route and Volume
The treatments were given by intraperitoneal route. The volume inoculated was 200 μl/animal.
Balb/c mice were distributed into 2 experimental groups:
Three days after the last dose of the treatment, murine blood was isolated. It was obtained directly from intracardiac punction. Previously, mice were anesthetized intramuscularly.
Blood was mixed with the monoclonal antibodies described above.
After 20 minutes of incubation, Optylise C solution was added into the samples to lise erythrocytes population.
Finally, samples were diluted ½ with 1× sterile PBS and checked by flow cytometry.
Percentages of each population analyzed were expressed as single values and as the mean±SD from each experimental group.

[3] = day 0 after tumour inoculation, 9d 250 ng
[4] = day 10 after tumour inoculation, 9d 250 ng
[5] = day 13 after tumour inoculation, 9d 250 ng
[6] = day 17 after tumour inoculation, 9d 250 ng
[7] = day 20 after tumour inoculation, 9d 250 ng
[8] = day 24 after tumour inoculation, 9d 250 ng
[9] = day 27 after tumour inoculation, 9d 250 ng
[10] = day 31 after tumour inoculation, 9d 250 ng
[11] = day 34 after tumour inoculation, 9d 250 ng
[12] = day 38 after tumour inoculation, 9d 250 ng
[13] = Balb/C mice, two doses (once per week) 250 ng i.p., flow cytometry three days after the last dose
[14] = group mean, n = 4, 250 ng i.p. on days 0 and 7, blood three days after the last dose
[15] = individual mice, 250 ng i.p. on days 0 and 7, blood three days after the last dose, listed as 9d

In the case of `Br.N[C@]1(C[n+]2ccccc2)C[C@H](C(=O)O)NC1=O.[Br-]` (single isomer, unassigned; isomer 4) [isomer 4, 3S,5R-1-(3-Amino-5-carboxy-2-oxopyrrolidin-3-ylmethyl)pyridinium bromide hidrobromide], the “Tumour growth inhibition?” value (ASB XIV (lung carcinoma); ASB XIV (high dose lung carcinoma)) is reported as “YES”, the “Tumour growth inhibition?” value (ASB XIV (lung carcinoma); ASB XIV (low dose lung carcinoma)) is reported as “YES” and the “Tumour surface, overall values (Mean)” value [1, 3] is reported as 0 mm^2. The “Tumour surface, overall values (Median)” value [1, 3] was 0 mm^2, the “Tumour volume, overall values (Mean)” value [1, 3] was 0 mm^3 and the “Tumour volume, overall values (Median)” value [1, 3] was 0 mm^3. For the same compound, the “Tumour surface, overall values (Mean)” value [1, 4] was 5.38 mm^2, the “Tumour surface, overall values (Median)” value [1, 4] was 4 mm^2 and the “Tumour volume, overall values (Mean)” value [1, 4] was 8.81 mm^3. For the same compound, the “Tumour volume, overall values (Median)” value [1, 4] was 4 mm^3, the “Tumour surface, overall values (Mean)” value [1, 5] was 17.25 mm^2 and the “Tumour surface, overall values (Median)” value [1, 5] was 16 mm^2. The “Tumour volume, overall values (Mean)” value [1, 5] was 43.38 mm^3, the “Tumour volume, overall values (Median)” value [1, 5] was 32 mm^3 and the “Tumour surface, overall values (Mean)” value [1, 6] was 29.88 mm^2. For the same compound, the “Tumour volume, overall values (Mean)” value [1, 6] was 94.56 mm^3, the “Tumour surface, overall values (Mean)” value [1, 7] was 57.06 mm^2 and the “Tumour surface, overall values (Median)” value [1, 7] was 36 mm^2. The “Tumour volume, overall values (Mean)” value [1, 7] was 246.03 mm^3, the “Tumour volume, overall values (Median)” value [1, 7] was 108 mm^3 and the “Tumour surface, overall values (Mean)” value [1, 8] was 81.38 mm^2. The “Tumour surface, overall values (Median)” value [1, 8] was 64 mm^2, the “Tumour volume, overall values (Mean)” value [1, 8] was 393.25 mm^3 and the “Tumour volume, overall values (Median)” value [1, 8] was 256 mm^3. The “Tumour surface, overall values (Mean)” value [1, 9] was 113.5 mm^2, the “Tumour surface, overall values (Median)” value [1, 9] was 105.5 mm^2 and the “Tumour volume, overall values (Mean)” value [1, 9] was 611.75 mm^3. For the same compound, the “Tumour volume, overall values (Median)” value [1, 9] was 446.75 mm^3, the “Tumour surface, overall values (Mean)” value [1, 10] was 135.31 mm^2 and the “Tumour surface, overall values (Median)” value [1, 10] was 132.5 mm^2. For the same compound, the “Tumour volume, overall values (Mean)” value [1, 10] was 777.53 mm^3, the “Tumour volume, overall values (Median)” value [1, 10] was 628.75 mm^3 and the “Tumour surface, overall values (Mean)” value [1, 11] was 168.81 mm^2. For the same compound, the “Tumour surface, overall values (Median)” value [1, 11] was 170.5 mm^2, the “Tumour volume, overall values (Mean)” value [1, 11] was 1068.3 mm^3 and the “Tumour volume, overall values (Median)” value [1, 11] was 937.75 mm^3. For the same compound, the “Tumour surface, overall values (Mean)” value [1, 12] was 214.44 mm^2, the “Tumour surface, overall values (Median)” value [1, 12] was 227.5 mm^2 and the “Tumour volume, overall values (Mean)” value [1, 12] was 1504.7 mm^3. For the same compound, the “Tumour volume, overall values (Median)” value [1, 12] was 1478.8 mm^3, the “KLN 205 tumour growth vs. placebo, tendency in words” value ([1]; either in surface or volume, all days scored after day 31th, t-test) was “significant tendency” and the “Differences in KLN 205 tumour growth rate vs. placebo, in words” value ([1]; t-test, 250 ng i.p.) was “not differences”. For the same compound, the “CD11b positive cells in peripheral blood compared with control mice” value [2, 13] was “increment”, the “CD11b+Ly6G positive cells in peripheral blood compared with control mice” value [2, 13] was “increment” and the “Ly6G positive cells in peripheral blood compared with control mice” value [2, 13] was “increment”. The “CD11b+ cells, PBL (Peripheral Blood), flow cytometry, Media” value [2, 14] was 36.95%, the “CD11b+Ly6G+ cells, PBL (Peripheral Blood), flow cytometry, Media” value [2, 14] was 31.05% and the “Ly6G+ cells, PBL (Peripheral Blood), flow cytometry, Media” value [2, 14] was 34.775%. The “CD11b+ cells, PBL (Peripheral Blood), flow cytometry” value [2, 15] was 35.5% and 44% and 35.4% and 32.9%, the “CD11b+Ly6G+ cells, PBL (Peripheral Blood), flow cytometry” value [2, 15] was 29.7% and 32.3% and 28.5% and 33.7% and the “Ly6G+ cells, PBL (Peripheral Blood), flow cytometry” value [2, 15] was 27% and 37.6% and 33.3% and 41.2%.
`N.N.[Cl][Pt][Cl]` [Cisplatin, reference compound] was tested, and the “Inhibition of the in vivo growth of KLN 205 cell, in words” value ([1]; 9d 250 ng, Cisplatin 65 μg i.p.) was “inhibit the in vivo growth”, the “Tumour surface, overall values (Mean)” value [1, 3] was 0 mm^2 and the “Tumour surface, overall values (Median)” value [1, 3] was 0 mm^2. The “Tumour volume, overall values (Mean)” value [1, 3] was 0 mm^3, the “Tumour volume, overall values (Median)” value [1, 3] was 0 mm^3 and the “Tumour surface, overall values (Mean)” value [1, 4] was 4.07 mm^2. The “Tumour surface, overall values (Median)” value [1, 4] was 4 mm^2, the “Tumour volume, overall values (Mean)” value [1, 4] was 5.1 mm^3 and the “Tumour volume, overall values (Median)” value [1, 4] was 4 mm^3. The “Tumour surface, overall values (Mean)” value [1, 5] was 14.87 mm^2, the “Tumour surface, overall values (Median)” value [1, 5] was 16 mm^2 and the “Tumour volume, overall values (Mean)” value [1, 5] was 31.77 mm^3. The “Tumour volume, overall values (Median)” value [1, 5] was 32 mm^3, the “Tumour surface, overall values (Mean)” value [1, 6] was 23.93 mm^2 and the “Tumour surface, overall values (Median)” value [1, 6] was 20 mm^2. The “Tumour volume, overall values (Mean)” value [1, 6] was 59.1 mm^3, the “Tumour volume, overall values (Median)” value [1, 6] was 40 mm^3 and the “Tumour surface, overall values (Mean)” value [1, 7] was 39.07 mm^2. For the same compound, the “Tumour surface, overall values (Median)” value [1, 7] was 36 mm^2, the “Tumour volume, overall values (Mean)” value [1, 7] was 119.07 mm^3 and the “Tumour volume, overall values (Median)” value [1, 7] was 108 mm^3. For the same compound, the “Tumour surface, overall values (Mean)” value [1, 8] was 72.2 mm^2, the “Tumour surface, overall values (Median)” value [1, 8] was 72 mm^2 and the “Tumour volume, overall values (Mean)” value [1, 8] was 285.43 mm^3. For the same compound, the “Tumour volume, overall values (Median)” value [1, 8] was 288 mm^3, the “Tumour surface, overall values (Mean)” value [1, 9] was 97.07 mm^2 and the “Tumour surface, overall values (Median)” value [1, 9] was 99 mm^2. The “Tumour volume, overall values (Mean)” value [1, 9] was 445.8 mm^3, the “Tumour volume, overall values (Median)” value [1, 9] was 445.5 mm^3 and the “Tumour surface, overall values (Mean)” value [1, 10] was 124.67 mm^2. The “Tumour surface, overall values (Median)” value [1, 10] was 120 mm^2, the “Tumour volume, overall values (Mean)” value [1, 10] was 637.07 mm^3 and the “Tumour volume, overall values (Median)” value [1, 10] was 600 mm^3. The “Tumour surface, overall values (Mean)” value [1, 11] was 147.93 mm^2, the “Tumour surface, overall values (Median)” value [1, 11] was 150 mm^2 and the “Tumour volume, overall values (Mean)” value [1, 11] was 809.03 mm^3. For the same compound, the “Tumour volume, overall values (Median)” value [1, 11] was 800 mm^3, the “Tumour surface, overall values (Mean)” value [1, 12] was 185.33 mm^2 and the “Tumour surface, overall values (Median)” value [1, 12] was 198 mm^2. For the same compound, the “Tumour volume, overall values (Mean)” value [1, 12] was 1129.9 mm^3, the “Tumour volume, overall values (Median)” value [1, 12] was 1089 mm^3 and the “Differences in KLN 205 tumour growth rate vs. placebo, statistical significance p (t-test)” value ([1]; either in surface or volume, all days scored after day 20th) was less than 0.05.
